Among the data in patent publication US9453023B2, “Substituted phenyl cycloalkyl pyrrolidine (piperidine) spirolactams and amides, preparation and therapeutic use thereof” (SANOFI, priority 2010, dated 2016) are Ki values, retold here.

For orientation: Ki means the equilibrium dissociation constant of an inhibitor or competing ligand from its target.

The assay deals with rhesus (Macacca Mulatta) H3 receptor (Macaca mulatta, UniProt Q865E1). Kind of assay: Rhesus H3 radioligand binding assay ([3H]-Methylhistamine, WGA SPA). To be noted: displacement of [3H]-Methylhistamine (2 nM) from rhesus H3 receptor membranes; Cheng-Prusoff. The arrangement: species or system rhesus monkey (Macacca Mulatta). The method, then:
(Genbank #AY231164). Stably transfected cultures were amplified in tissue culture flasks by standard tissue culture methods and induced to express rhesus H3 by exposure to 500 ng/ml tetracycline (Cellgro) for 24 hours. After induction, cells were dissociated from flasks utilizing Cell Stripper (Cellgro). Cells were centrifuged (1K×g, 5 min) and pellet frozen in an ethanol-dry ice bath to disrupt cell membranes. Frozen cell pellet was re-suspended in 5 mM HEPES (pH 7.4, Invitrogen) at 10 ml/1000 cm2 of harvested cells. The cell suspension was drawn through an 18 gauge needle (2-3×) followed by a 23 gauge needle (2-3×) to further disrupt cell membranes. The cell suspension was centrifuged (40K×g, 30 min). Cell membrane pellet was re-suspended in 5 mM HEPES (pH 7.4, Invitrogen) at a final protein concentration of 10 mg/ml. Rhesus H3 membranes were stored under liquid nitrogen prior to use in [3H]-Methylhistamine and GTPγS radioligand binding assays.
Rhesus H3 radioligand binding assay was performed using rhesus H3 receptor membranes (prepared as described above), [3H]-Methylhistamine (Perkin Elmer) and WGA SPA beads (wheat germ agglutinin scintillation proximity assay) beads (Amersham). The assay was performed in 96-well Opti-Plates (Packard). Each reaction contained 50 μl rhesus H3 membranes (20-30 μg total protein), 50 μl WGA SPA beads (0.1 μg) and 50 μl of 83 Ci/mmol [^3H]-Methylhistamine (final concentration 2 nM) and 50 μl of tested compound. The compounds of this invention and/or vehicle were diluted with binding buffer from 10 mM DMSO stocks. Assay plates were sealed with TopSeal (Perkin Elmer) and mixed on shaker (25° C., 1 hour). Assay plates were read on TopCount scintillation counter (Packard). Results were analyzed by Hill transformation and Ki values were determined by Cheng-Prusoff equation.
On the technique in general: Loss of bound radioactivity is the signal in a displacement assay; it reports binding, not function.

Sequence of rhesus (Macacca Mulatta) H3 receptor (Q865E1 1-445): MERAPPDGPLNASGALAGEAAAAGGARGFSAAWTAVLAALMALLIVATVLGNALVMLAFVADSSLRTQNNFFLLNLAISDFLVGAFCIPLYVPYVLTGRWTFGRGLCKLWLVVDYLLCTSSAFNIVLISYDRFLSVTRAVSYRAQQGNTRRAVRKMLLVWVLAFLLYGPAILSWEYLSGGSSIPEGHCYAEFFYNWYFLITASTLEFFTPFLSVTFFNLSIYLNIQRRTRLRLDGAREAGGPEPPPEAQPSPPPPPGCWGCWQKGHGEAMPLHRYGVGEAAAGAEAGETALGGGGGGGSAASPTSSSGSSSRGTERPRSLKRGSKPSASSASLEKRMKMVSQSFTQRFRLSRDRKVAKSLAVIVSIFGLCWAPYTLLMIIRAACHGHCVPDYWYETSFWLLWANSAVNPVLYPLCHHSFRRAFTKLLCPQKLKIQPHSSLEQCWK

`Cc1noc(C)c1C(=O)Nc1ccc([C@H]2CCC(N3CCC[C@@H]3C)C2)cc1` (stereo partly drawn) [Example 26, 3,5-Dimethyl-isoxazole-4-carboxylic acid {4-[(S)-3-((S)-2-methyl-pyrrolidin-1-yl)-cyclopentyl]-phenyl}-amide] had a Ki of 6.01 nM.

Molecule `CC1CCCN1C1CC[C@H](c2ccc(N3CCC4(CCC(O)CC4)C3=O)cc2)C1` (stereo partly shown) [Example 4, 8-Hydroxy-2-{4-[3-(2-methyl-pyrrolidin-1-yl)-cyclopentyl]-phenyl}-2-aza-spiro[4.5]decan-1-one] displayed a Ki of 75.2 nM.

Turning to `C[C@H]1CCCN1C1CC[C@H](c2ccc(NS(=O)(=O)C3CC3)cc2)C1` (stereo partly drawn) [Example 27, Cyclopropanesulfonic acid {4-[(S)-3-((S)-2-methyl-pyrrolidin-1-yl)-cyclopentyl]-phenyl}-amide], the affinity, expressed as Ki, was 34 nM.

For the molecule `C[C@H]1CCCN1C1CC[C@H](c2ccc(NC(=O)OCc3ccccc3)cc2)C1` (mixture of isomers) [Intermediate (13), {4-[(S)-3-((S)-2-Methyl-pyrrolidin-1-yl)-cyclopentyl]-phenyl}-carbamic acid benzyl ester], the inhibition constant Ki was 37.4 nM.
